Experiments:
[1] = test system: OVA/alum-sensitized mice; assay: Asthma studies: ovalbumin sensitization, bronchial lavage, FACS; assay type: in vivo, mice (BALE/c line)
Protocol: An immune response to ovalbumin was provoked by administering ovalbumin together with aluminium hydroxide. The immune response can be tracked with the help of the T helper cells population (CD4+) which has migrated into the bronchial lining and the eosinophilic granulocytes which have migrated in.
Female mice (BALE/c line) were sensitized by intraperitoneal (i.p.) administration of 50 μg ovalbumin (OVA) dissolved in phosphate buffer (PBS) plus 100 μL aluminium hydroxide (alum) with a total volume of 200 μL per mouse on day 0.100 μg OVA in PBS (50 μL total volume) in each case was then administered intranasally to the OVA/alum-sensitized mice under mild anaesthesia (isoflurane) on days 7 to 10. From these animals groups were formed which additionally received on days 7, 9, and 11 either 250 μg Cs-103 in PBS (i.p.), PBS only (diluent) or no further addition (−). On day 12 all the animals were killed by CO2 exposure and cells of the bronchial tract were obtained by bronchial lavage (BAL) by means of a cannula introduced into the trachea washing three times each with 1 ml cold PBS. The obtained cells of the BAL were then double dyed (a) with Cy-Chrome-conjugated anti-mouse CD4-antibodies and (b) with FITC-conjugated anti-mouse CD62L-antibodies. The cells were then analyzed by means of FACS. Effector/Memory […] T cells were distinguished as CD4^+/CD62L^− lymphocytes and eosinophilic cells with the help of their scattered light properties (FSC/SSC).

[2] = Toxicity test: leukocyte count in blood and spleen; assay type: in vivo, mice; conditions: three doses of 250 μg on 1st, 3rd and 5th day, cell count on 6th day; FIGS. 4 and 5
Protocol: FIG. 4 the number of leukocytes in the blood before and after administering three doses (1st, 3rd and 5th day) of 250 μg Cs-103 to each animal (determination on the 6th day); and
FIG. 5 the number of leukocytes in the spleen before and after administering three doses (1st, 3rd and 5th day) of 250 μg Cs-103 to each animal (determination on the 6th day).
As the leukocyte count in blood and spleen increases in the case of inflammatory diseases, the number of these cells was used as toxicity marker. As FIGS. 4 and 5 show, the selected compound Cs-103 (after administering three doses of 250 μg Cs-103, on the 1st, 3rd and 5th day, and cell count determination on the 6th day) is harmless in this assay.

[3] = blood cells vs plasma; cited from earlier work

Row | SMILES | number of eosinophilic granulocytes in the lung lavage fluid ([1]; 250 μg Cs-103, FIG. 3) | number of eosinophilic granulocytes which migrated through ovalbumin sensitization into the bronchial lining ([1]; 250 μg Cs-103, control: OVA-sensitized animals, FIG. 2) | number of CD4-positive T cells which migrated through ovalbumin sensitization into the bronchial lining ([1]; 250 μg Cs-103 i.p. on days 7, 9, 11, control: OVA-sensitized animals, FIG. 1) | leukocyte count in blood and spleen as toxicity marker [2] | concentration in blood cells relative to surrounding plasma [3]
1 | CC[C@@H]1NC(=O)[C@H]([C@H](O)[C@H](C)CCN(CCC(=O)N[C@H](CCC(=O)O)C(=O)N[C@H](CCC(=O)O)C(=O)N[C@H](CCC(=O)O)C(=O)N[C@H](CCC(=O)O)C(=O)N[C@H](CCC(=O)O)C(=O)N[C@H](CCC(=O)O)C(=O)NCC(=O)O)C(C)=O)N(C)C(=O)[C@H](C(C)C)N(C)C(=O)[C@H](CC(C)C)N(C)C(=O)[C@H](CC(C)C)N(C)C(=O)[C@@H](C)NC(=O)[C@H](C)NC(=O)[C@H](CC(C)C)N(C)C(=O)[C@H](C(C)C)NC(=O)[C@H](CC(C)C)N(C)C(=O)CN(C)C1=O [Cs-103] | very significantly reduced | very significantly reduced | very significantly reduced | harmless | 
2 | C/C=C/C[C@@H](C)[C@@H](O)[C@H]1C(=O)N[C@@H](CC)C(=O)N(C)CC(=O)N(C)[C@@H](CC(C)C)C(=O)N[C@@H](C(C)C)C(=O)N(C)[C@@H](CC(C)C)C(=O)N[C@@H](C)C(=O)N[C@H](COCCO)C(=O)N(C)[C@@H](CC(C)C)C(=O)N(C)[C@@H](CC(C)C)C(=O)N(C)[C@@H](C(C)C)C(=O)N1C [SDZ IMM 125] |  |  |  |  | approximately 8 ×
